We go through one substance from patent US20250302913A1, “LACRIPEP PROMOTES NEUROREGENERATION AND MAINTAINS EPITHELIAL PROGENITOR CELL IDENTITY” (The Regents of The University of California, priority 2022, published 2025).

Holding throughout (assay type): in vivo, mouse
For assay [1], the system named is Aire KO corneas. The assay is described as follows: Epithelial barrier function by lissamine green uptake. From the text: As dry eye results in disruption of ocular surface integrity resulting in cornea barrier dysfunction and, consequently, fluid loss and pathogen invasion (11), we next determined whether lacripep maintains corneal epithelial architecture by analyzing lissamine green uptake at day 7 and 15. […] Restoration of barrier function was further confirmed by analyzing the superficial epithelial layers for the tight junction protein ZO1 which is essential to the structural integrity of the corneal epithelium (12).
Aire KO female mice aged 5 weeks were used for the study. All mice were topically treated with 5 μL per eye of 4 μM lacripep. Dosing was three times daily for 14 consecutive days. Lissamine green staining assessment and tear secretion assays were performed on each eye before treatment at baseline, 7 days and 14 days post treatment
After mice were anesthetized with isoflurane, 5 μL of lissamine green dye (1%) was applied to the lower conjunctival cul-de-sac. […] Lissamine green staining was scored by dividing the cornea into four quadrants, the extent of staining in each quadrant was classified as Grade 0, no staining; Grade 1, sporadic (<25%); Grade 2, diffuse punctate (25-75%), or Grade 3, coalesced punctate staining (75% or more). The total score was calculated separately for each eye and equaled the sum of all four quadrants ranging from 0 (no staining) to 12 (most severe staining). […]

The subject of assay [2] is KRT14+ basal cells. Briefly: Basal progenitor identity (KRT14/KRT6A) and proliferation (Ki67) in cornea. To be noted: 2 wks treatment; Aire KO cornea. From the text:
Although it has been well established that basal progenitor cells (also referred to as transit amplifying cells (13)) undergo mitosis and migration (14) to give rise to the barrier forming suprabasal epithelial and stratified squamous epithelial cells, the impact of dry eye disease on basal cell identity and differentiation remains largely unknown. Thus, we questioned whether basal cell identity was altered in the desiccated cornea through defining the cellular location of KRT6A, a marker of early epithelial cell differentiation in skin (15) and cultured cornea epithelial cells (16). Accordingly, we confirmed that KRT6A marks differentiated corneal epithelial cell types in vivo, as shown by its exclusive expression in KRT14-deficient suprabasal and superficial epithelial cells of healthy cornea at 7 wks of age (FIG. 1G). […] To determine if changes in cell identity alters progenitor cell division, we analyzed the percentage of proliferating K14+ basal cells in treated and untreated corneas. […]
Quantification of corneal epithelial basal progenitor identity and proliferation. The number of basal KRT14+ and KRT14+ KRT6A+ basal epithelial cells were counted in 350 μm sections of central cornea. […] The number of proliferating epithelial progenitors (Ki67+ KRT14+) was presented as a percentage of total KRT14+ cells counted in 350 μm sections of central cornea.

Assay [3] has as its system Aire KO corneas. Briefly: RNAseq of corneas at day 7 of treatment. From the text:
To identify potential downstream targets of lacripep treatment, we elucidated changes in corneal gene expression and signaling pathways at the day 7 time point through RNAseq. Principal component analysis (PCA) identified major transcriptional differences between each treatment group (FIG. 6A). […] Subsequent analysis yielded enriched gene sets that were highly associated with neuronal gene ontology (GO) terms e.g., synapse (P=3.6E-47), visual perception (P=5.8E-49), neuron projection (P=2.1E-29), and response to stimulus (P=1.8E-19) (FIG. 4C). These included cohorts of genes expressed by nerves and/or corneal epithelial cells involved in axonogenesis and axon guidance e.g., Neurod2, Cntn4, ephrins (Epha5, Epha7, Epha8) and semaphorins (Sema6a, Sema7a); synapse formation and function e.g., synaptic vesicle membrane proteins (Syt1; synaptophysin-Syp) and synaptic vesicle exocytosis regulators (Rims1, Rims2); neuronal signaling e.g., GABA receptors (Gabra2, Gabrr1), glutamate receptors (Gria2, Gria4), and G protein signal-transducing mediators (Gnb3, Gng4); and neurotransmitter transport e.g. glutamate transporters (Slc17a7) and GABA transporters (Slc6a1, Slc32a1) (FIG. 4D). Analysis of corneas treated with lacripep or PBS versus untreated corneas further emphasized the ability of lacripep and not PBS alone to induce transcription of neuronal gene sets (FIG. 6B).
Total RNA was collected at 7 days of treatment and purified using RNAaqueous and DNase reagents according to the manufacturer's instructions (Ambion, Houston, TX, USA). RNA quality was assessed using the Agilent 2100 BioAnalyzer, and samples with an RNA integrity ≥6.0 were included for RNA sequencing. The synthesis of mRNA libraries was performed by Novogene Corporation Inc. according to their protocols. RNA library was formed by ploy A capture (or rRNA removal), RNA fragmentation by covaris or enzyme digestion and reverse transcription of cDNA. Sequencing was performed as described below.
RNA libraries were sequenced on an Illumina NovaSeq 6000. Depths of 20-30 million 150 bp paired-end reads were generated for each sample. Quality control metrics were performed on raw sequencing reads using the FASTQC v0.11.9 application (76). Reads were mapped to the UCSC Mus musculus genome mm 10 (NCBI build v38) using Spliced Transcripts Alignment to a Reference (STAR) (77). At least 90% of the reads were successfully mapped. Reads aligning to the mm 10 build were quantified against Ensembl Transcripts release 93 using Partek® E/M (Partek's optimization of the expectation maximization algorithm, Partek Inc, St. Louis, MO, USA), which disregarded any reads that aligned to more than one location or more than one gene at a single location. […]

The mark [4] stands for this setting: lacripep- versus PBS-treated corneas, Padj<0.05, 2-fold change cutoff.

With “Ac-KQFIENGSEFAQKLLKKFSLLKPWA-NH2 [lacripep, amino terminus acetylated, carboxyl terminus aminated]”, the lissamine green uptake entry in assay [1] (day 7, compared to WT controls) is “increased lissamine green uptake compared to WT controls”. Also, the “epithelial barrier function (lissamine green uptake)” value in assay [1] (day 15, uptake levels resembling WT corneas) was “significantly improved”. The “basal cell identity (KRT6A in KRT14+ basal cells)” value in assay [2] is “returned to that of WT tissue”. The “expression of inflammatory mediators (IL1b, interferon response genes)” value in assay [3] (across diseased corneas) was “expressed at similar levels in all diseased corneas”. Moreover, the “expression of T cell markers, T cell response genes and macrophage markers” value in assay [3] (compared to WT controls) is listed as “remained significantly elevated”. In assay [3] (setting [4]), this substance gave a genes downregulated of 15 genes and a genes significantly upregulated of 818 genes.
